Source: patent US6770597B2, “Benzohydrazide derivatives as herbicides and desiccant compositions containing them” (Ishihara Sangyo Kaisha, Ltd., priority 2002, dated 2004)

Legend:
Format in all cases: in vivo
[1] = system: barnyardgrass (Echinochloa crus-galli, ECHCG); experiment: Greenhouse herbicide screen, post-emerge application, phytotoxicity rating; conditions: POST emergent, 14 days after application, scale 0-100
In short: (§1)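 Rating: 0–100 scale, 14 DAA; 100 = complete plant death. Spray: acetone, 187 l/ha, 15–1000 g ai/ha, track sprayer. Timing: pre-emerge 1 d after sowing; post-emerge at 2–3 leaves.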

[2] = system: cocklebur (Xanthium strumarium, XANST); experiment: as above; conditions: POST emergent, 14 days after application, scale 0-100
In short: as §1

[3] = system: common ragweed (Ambrosia artemisiifolia L., AMBEL); experiment: as above; conditions: POST emergent, 14 days after application, scale 0-100
In short: as §1

[4] = system: green foxtail (Setaria viridis, SETVI); experiment: as above; conditions: POST emergent, 14 days after application, scale 0-100
In short: as §1

[5] = system: ivyleaf morningglory (Ipomoea hederacea, IPOHE); experiment: as above; conditions: POST emergent, 14 days after application, scale 0-100
In short: as §1

[6] = system: johnsongrass (Sorghum halepense, SORHA); experiment: as above; conditions: POST emergent, 14 days after application, scale 0-100
In short: as §1

[7] = system: lambsquarters (Chenopodium album, CHEAL); experiment: as above; conditions: POST emergent, 14 days after application, scale 0-100
In short: as §1

[8] = system: large crabgrass (Digitaria sanguinalis, DIGSA); experiment: as above; conditions: POST emergent, 14 days after application, scale 0-100
In short: as §1

[9] = system: redroot pigweed (Amaranthus retrofiexus, AMARE); experiment: as above; conditions: POST emergent, 14 days after application
In short: as §1

[10] = system: sicklepod (Cassia obtusifolia, CASOB); experiment: as above; conditions: POST emergent, 14 days after application, scale 0-100
In short: as §1

[11] = system: velvetleaf (Abutilon theophrasti, ABUTH); experiment: as above; conditions: POST emergent, 14 days after application, scale 0-100
In short: as §1

[12] = system: field corn (Zea mays L., var. Dekalb 535, CORN); experiment: Greenhouse herbicide screen, post-emerge application, crop damage rating; conditions: POST emergent, 14 days after application, scale 0-100
In short: as §1

[13] = system: upland rice (Oryza sp., var.Cocodrie, RICE); experiment: as above; conditions: POST emergent, 14 days after application, scale 0-100
In short: as §1

[14] = system: barnyardgrass (Echinochloa crus-galli, ECHCG); experiment: Greenhouse herbicide screen, pre-emerge application, phytotoxicity rating; conditions: PRE emergent, 14 days after application, rating scale 0-100
In short: as §1

[15] = system: cocklebur (Xanthium strumarium, XANST); experiment: as above; conditions: PRE emergent, 14 days after application, rating scale 0-100
In short: as §1

[16] = system: common ragweed (Ambrosia artemisiifolia L., AMBEL); experiment: as above; conditions: PRE emergent, 14 days after application, rating scale 0-100
In short: as §1

[17] = system: green foxtail (Setaria viridis, SETVI); experiment: as above; conditions: PRE emergent, 14 days after application, rating scale 0-100
In short: as §1

[18] = system: ivyleaf morningglory (Ipomoea hederacea, IPOHE); experiment: as above; conditions: PRE emergent, 14 days after application, rating scale 0-100
In short: as §1

[19] = system: johnsongrass (Sorghum halepense, SORHA); experiment: as above; conditions: PRE emergent, 14 days after application, rating scale 0-100
In short: as §1

[20] = system: lambsquarters (Chenopodium album, CHEAL); experiment: as above; conditions: PRE emergent, 14 days after application, rating scale 0-100
In short: as §1

[21] = system: large crabgrass (Digitaria sanguinalis, DIGSA); experiment: as above; conditions: PRE emergent, 14 days after application, rating scale 0-100
In short: as §1

[22] = system: redroot pigweed (Amaranthus retrofiexus, AMARE); experiment: as above; conditions: PRE emergent, 14 days after application, rating scale 0-100
In short: as §1

[23] = system: sicklepod (Cassia obtusifolia, CASOB); experiment: as above; conditions: PRE emergent, 14 days after application, rating scale 0-100
In short: as §1

[24] = system: velvetleaf (Abutilon theophrasti, ABUTH); experiment: as above; conditions: PRE emergent, 14 days after application, rating scale 0-100
In short: as §1

[25] = system: field corn (Zea mays L., var. Dekalb 535, CORN); experiment: Greenhouse herbicide screen, pre-emerge application, crop damage rating; conditions: PRE emergent, 14 days after application, rating scale 0-100
In short: as §1

[26] = system: upland rice (Oryza sp., var.Cocodrie, RICE); experiment: as above; conditions: PRE emergent, 14 days after application, rating scale 0-100
In short: as §1

[27] = 63 g ai/ha, scale 0-100 (0 no damage, 100 complete death)

SMILES: CC(=O)OC(=NN1C(C)CCCC1C)c1cc(-n2c(=O)cc(C(F)(F)F)n(C)c2=O)c(F)cc1Cl (centres unmarked) [Compound 4-9]
- phytotoxicity rating ECHCO ([1]; 63 g ai/ha): 0
- phytotoxicity rating ECHCO ([1]; 250 g ai/ha): 15
- phytotoxicity rating XANST ([2]; 63 g ai/ha): 30
- phytotoxicity rating XANST ([2]; 250 g ai/ha): 60
- phytotoxicity rating AMBEL ([3]; 63 g ai/ha): 60
- phytotoxicity rating AMBEL ([3]; 250 g ai/ha): 99
- phytotoxicity rating SETVI ([4]; 63 g ai/ha): 65
- phytotoxicity rating SETVI ([4]; 250 g ai/ha): 100
- phytotoxicity rating IPOHE ([5]; 63 g ai/ha): 95
- phytotoxicity rating IPOHE ([5]; 250 g ai/ha): 100
- phytotoxicity rating SORHA ([6]; 63 g ai/ha): 0
- phytotoxicity rating SORHA ([6]; 250 g ai/ha): 80
- phytotoxicity rating CHEAL ([7]; 63 g ai/ha): 100
- phytotoxicity rating CHEAL ([7]; 250 g ai/ha): 100
- phytotoxicity rating DIGSA ([8]; 63 g ai/ha): 50
- phytotoxicity rating DIGSA ([8]; 250 g ai/ha): 99
- phytotoxicity rating AMARE [9, 27]: 100
- phytotoxicity rating AMARE ([9]; 250 g ai/ha, scale 0-100): 100
- phytotoxicity rating CASOB ([10]; 63 g ai/ha): 60
- phytotoxicity rating CASOB ([10]; 250 g ai/ha): 90
- phytotoxicity rating ABUTH ([11]; 63 g ai/ha): 100
- phytotoxicity rating ABUTH ([11]; 250 g ai/ha): 100
- crop damage rating CORN ([12]; 63 g ai/ha): 0
- crop damage rating CORN ([12]; 250 g ai/ha): 50
- crop damage rating RICE ([13]; 63 g ai/ha): 0
- crop damage rating RICE ([13]; 250 g ai/ha): 0
- phytotoxicity rating ECHCG ([14]; 63 g ai/ha): 55
- phytotoxicity rating ECHCG ([14]; 250 g ai/ha): 99
- phytotoxicity rating XANST ([15]; 63 g ai/ha): 35
- phytotoxicity rating XANST ([15]; 250 g ai/ha): 100
- phytotoxicity rating AMBEL ([16]; 63 g ai/ha): 90
- phytotoxicity rating AMBEL ([16]; 250 g ai/ha): 100
- phytotoxicity rating SETVI ([17]; 63 g ai/ha): 100
- phytotoxicity rating SETVI ([17]; 250 g ai/ha): 100
- phytotoxicity rating IPOHE ([18]; 63 g ai/ha): 100
- phytotoxicity rating IPOHE ([18]; 250 g ai/ha): 100
- phytotoxicity rating SORHA ([19]; 63 g ai/ha): 65
- phytotoxicity rating SORHA ([19]; 250 g ai/ha): 100
- phytotoxicity rating CHEAL ([20]; 63 g ai/ha): 100
- phytotoxicity rating CHEAL ([20]; 250 g ai/ha): 100
- phytotoxicity rating DIGSA ([21]; 63 g ai/ha): 99
- phytotoxicity rating DIGSA ([21]; 250 g ai/ha): 100
- phytotoxicity rating AMARE ([22]; 63 g ai/ha): 100
- phytotoxicity rating AMARE ([22]; 250 g ai/ha): 100
- phytotoxicity rating CASOB ([23]; 63 g ai/ha): 80
- phytotoxicity rating CASOB ([23]; 250 g ai/ha): 100
- phytotoxicity rating ABUTH ([24]; 63 g ai/ha): 100
- phytotoxicity rating ABUTH ([24]; 250 g ai/ha): 100
- crop damage rating CORN ([25]; 63 g ai/ha): 30
- crop damage rating CORN ([25]; 250 g ai/ha): 95
- crop damage rating RICE ([26]; 63 g ai/ha): 10
- crop damage rating RICE ([26]; 250 g ai/ha): 15

SMILES: CN(C)NC(=O)c1cc(-n2c(=O)cc(C(F)(F)F)n(C)c2=O)ccc1Cl [Compound 1-4]
- phytotoxicity rating ECHCO ([1]; 63 g ai/ha): 65
- phytotoxicity rating ECHCO ([1]; 250 g ai/ha): 95
- phytotoxicity rating XANST ([2]; 63 g ai/ha): 100
- phytotoxicity rating XANST ([2]; 250 g ai/ha): 100
- phytotoxicity rating AMBEL ([3]; 63 g ai/ha): 80
- phytotoxicity rating AMBEL ([3]; 250 g ai/ha): 100
- phytotoxicity rating SETVI ([4]; 63 g ai/ha): 65
- phytotoxicity rating SETVI ([4]; 250 g ai/ha): 75
- phytotoxicity rating IPOHE ([5]; 63 g ai/ha): 100
- phytotoxicity rating IPOHE ([5]; 250 g ai/ha): 100
- phytotoxicity rating SORHA ([6]; 63 g ai/ha): 50
- phytotoxicity rating SORHA ([6]; 250 g ai/ha): 80
- phytotoxicity rating CHEAL ([7]; 63 g ai/ha): 99
- phytotoxicity rating CHEAL ([7]; 250 g ai/ha): 100
- phytotoxicity rating DIGSA ([8]; 63 g ai/ha): 35
- phytotoxicity rating DIGSA ([8]; 250 g ai/ha): 55
- phytotoxicity rating AMARE [9, 27]: 100
- phytotoxicity rating AMARE ([9]; 250 g ai/ha, scale 0-100): 100
- phytotoxicity rating CASOB ([10]; 63 g ai/ha): 70
- phytotoxicity rating CASOB ([10]; 250 g ai/ha): 80
- phytotoxicity rating ABUTH ([11]; 63 g ai/ha): 100
- phytotoxicity rating ABUTH ([11]; 250 g ai/ha): 100
- crop damage rating CORN ([12]; 63 g ai/ha): 65
- crop damage rating CORN ([12]; 250 g ai/ha): 99
- crop damage rating RICE ([13]; 63 g ai/ha): 10
- crop damage rating RICE ([13]; 250 g ai/ha): 65
- phytotoxicity rating ECHCG ([14]; 63 g ai/ha): 0
- phytotoxicity rating ECHCG ([14]; 250 g ai/ha): 40
- phytotoxicity rating XANST ([15]; 63 g ai/ha): 0
- phytotoxicity rating XANST ([15]; 250 g ai/ha): 60
- phytotoxicity rating AMBEL ([16]; 63 g ai/ha): 0
- phytotoxicity rating AMBEL ([16]; 250 g ai/ha): 40
- phytotoxicity rating SETVI ([17]; 63 g ai/ha): 0
- phytotoxicity rating SETVI ([17]; 250 g ai/ha): 35
- phytotoxicity rating IPOHE ([18]; 63 g ai/ha): 75
- phytotoxicity rating IPOHE ([18]; 250 g ai/ha): 100
- phytotoxicity rating SORHA ([19]; 63 g ai/ha): 0
- phytotoxicity rating SORHA ([19]; 250 g ai/ha): 35
- phytotoxicity rating CHEAL ([20]; 63 g ai/ha): 15
- phytotoxicity rating CHEAL ([20]; 250 g ai/ha): 100
- phytotoxicity rating DIGSA ([21]; 63 g ai/ha): 0
- phytotoxicity rating DIGSA ([21]; 250 g ai/ha): 60
- phytotoxicity rating AMARE ([22]; 63 g ai/ha): 40
- phytotoxicity rating AMARE ([22]; 250 g ai/ha): 95
- phytotoxicity rating CASOB ([23]; 63 g ai/ha): 0
- phytotoxicity rating CASOB ([23]; 250 g ai/ha): 90
- phytotoxicity rating ABUTH ([24]; 63 g ai/ha): 30
- phytotoxicity rating ABUTH ([24]; 250 g ai/ha): 99
- crop damage rating CORN ([25]; 63 g ai/ha): 35
- crop damage rating CORN ([25]; 250 g ai/ha): 75
- crop damage rating RICE ([26]; 63 g ai/ha): 0
- crop damage rating RICE ([26]; 250 g ai/ha): 8
